# Reference: patent US20100323968A1, “Process of inhibiting cell death in injured cartilage” (The Scripps Research Institute, priority 2001, published 2010)
# “Also recorded” adds a separate entry of the source. Where a SMILES comes first, the peptide text is derived from it. The star is where a group is joined. Cbz = O=C(OCc1ccccc1)*; CH2F = FC*
# How the values were obtained:
# [1] = tested on: bovine cartilage explants; assay: Apoptosis (TUNEL) in mechanically injured bovine cartilage explants; assay type: cell-based; conditions: for Mean (±SD) apoptosis rates, Loaded + Agent: bovine femoral condyle cartilage, loaded at 23 MPa, in vitro, n = 8 to 10
# Excerpt: Cartilage explants. Macroscopically normal weight bearing portions of freshly slaughtered skeletally mature bovine femoral condyles were selected from animals between 2 and 6 years of age (Animal Technologies, Austin, Tex.). Only joints without visible signs of degeneration or aging were selected. Using sterile techniques, full thickness cartilage was separated from underlying subchondral bone with a scalpel and 5 mm diameter cylindrical explants, ranging from 1 to 1.8 mm in height, cored out using a dermal punch (Acuderm, Inc., Ft. Lauderdale, Fla.). Explants taken from adjacent sites were used as matched controls for each group in each experiment to minimize variation in cartilage response due to differences in thickness and location within the joint. Each explant was weighed and allowed to stabilize at 37° C. and 5% CO2 for 48 hours in 1 ml of Dulbecco's modified Eagle's medium (DMEM) supplemented with 10% fetal bovine serum (FBS), L-glutamine, antibiotics and 50 μg/ml ascorbic acid.
# Full thickness bovine cartilage explants, 5 mm in diameter, were subjected to a single static mechanical load of 7, 14 or 23 MPa for 500 msec. This model simulates traumatic cartilage injury and the loads were similar in magnitude to those generated during traumatic joint injury. Glycosaminoglycan (GAG) release and percent apoptotic cells were measured. The effect of a pan-caspase inhibitor, z-VAD.fmk [benzyloxycarbonyl-Val-Ala-Asp (OMe) fluoromethylketone] in preventing chondrocyte apoptosis was determined. z-VAD.fmk is a fluoromethylketone irreversible inhibitor of a broad spectrum of caspases. […] The percentage of apoptotic chondrocytes was related to load intensity and correlated with the level of GAG release from cartilage. […] This identifies a new approach to limit traumatic cartilage injury and the subsequent development of secondary osteoarthritis.
# Loading apparatus and procedure. A model to simulate acute joint injury was used in this study based on injury models reported by Repo and Finlay, and Jeffrey et al. (Repo, et al. (1977) J. Bone Joint Surg. Am. 59A, 1068-1076, Jeffrey, et al. (1995) Arch. Biochem. Biophys. 322, 87-96). Although these reported models impacted cartilage using drop towers, a more controlled method was chosen for applying and maintaining stress or strain as follows. An Instron 8511 servohydraulic testing machine (Instron Corporation, Boston, Mass.) was used to mechanically load the cartilage explants. Explants were transported from the incubator to the Instron machine in sealed cell culture dishes. The explant was centralized on a stainless steel loading platform and a radially unconfined compressive load was applied through an impermeable stainless steel platen. A small preload (0.1 MPa) was applied for 2 minutes, followed by a single 500 msec trapezoidal loading waveform at the selected stress. The stress rose from 0.1 MPa to the chosen stress level in 100 msec and was maintained for 500 msec. Three stress levels were chosen to represent acute joint injury. 7 MPa has been reported to be the upper limit of physiologic stress developed during activities of daily living (von Eisenhart, et al. (1999) J. Orthop. Res. 17, 532-539). 23 MPa is the stress above which the underlying bone has been reported to fracture (Haut (1989) J. Orthop. Res. 7, 272-280). Control explants were placed in the loading apparatus but not loaded. […] Stress and strain data were recorded during the test. […]
# human cartilage explants = assay: Apoptosis (TUNEL) in mechanically injured human cartilage explants; assay type: cell-based; conditions: for Mean (±SD) apoptosis rates, Loaded + Agent: human cartilage (femoral condyles and tibial plateaus), in vitro, n = 8 to 10
# Excerpt: Cartilage explants. Macroscopically normal tibial and femoral articular surfaces were selected from human cadaver donors between 18 and 45 years of age. Using sterile techniques, full thickness cartilage was separated from underlying subchondral bone with a scalpel. 5 mm diameter cylindrical explants, ranging from 2 to 2.8 mm in thickness, cored out using a dermal punch (Acuderm, Inc., Ft. Lauderdale, Fla.). Explants taken from adjacent sites were used as matched controls for each group in each experiment to minimize variation in cartilage response due to differences in thickness and location within the joint. Each explant was weighed and allowed to stabilize at 37° C. and 5% CO2 for 48 hours in Dulbecco's modified Eagle's medium (DMEM) supplemented with 5% fetal bovine serum (FBS), L-glutamine, antibiotics and […] ascorbic acid.
# Loading apparatus and procedure. An Instron 8511 servohydraulic testing machine (Instron Corporation, Boston, Mass.) was used to mechanically load the cartilage explants. Explants were transported from the incubator to the Instron machine in sealed cell culture dishes. The total time duration of loading for a single experiment varied from approximately 1 to 2 hours depending on the number of samples. During this time, explants were maintained at 37° C. The explant was centralized on a stainless steel loading platform and a radially unconfined compressive load was applied through an impermeable stainless steel platen. […] Stress and strain data were recorded during the test.
# Caspase inhibition. […] Percentage apoptosis was measured at 96 hours post-injury in three groups (control, loaded, and loaded with z-VAD.fmk) with ten explants each in two separate experiments.
# Apoptosis detection. […] This was detected by immunohistochemical staining with M30 (Cytodeath, Boehringer Mannheim, Eugene, Oreg.), a monoclonal antibody that recognizes the neo-epitope exposed in early apoptosis.
# Chondrocyte apoptosis after mechanical injury to human cartilage. […] GAG release and percentage of cells undergoing apoptosis were measured at 96 hours after injury. […]
# [2] = tested on: bovine cartilage explants; assay: Glycosaminoglycan release assay (DMMB) in injured bovine cartilage explants; assay type: cell-based; conditions: bovine explants after mechanical injury, z-VAD.fmk 100 μM, 48 hours
# Protocol: Glycosaminoglycan release assay. To estimate GAG depletion and release, the concentration of sulfated glycosaminoglycans was measured using […] (DMMB) as a monitor of spectrophotometric changes which occur during the formation of the sulfated GAG dye complex (Farndale, et al. (1986) Biochim. Biophys. Acts. 883, 173-177, Goldberg, et al. (1993) Agents Actions 39 Spec No, C163-C165). For GAG content measurement, samples were digested in papain and collagenase and the concentration of sulfated GAG measured using DMMB. To generate a standard curve, chondroitin-6-sulfate (Sigma, St. Louis, Mo.) was used at concentrations between 1 and 200 μg/ml. GAG released in media was normalized to the pooled mean GAG content of Control (uninjured) cartilage explants and expressed as a percentage of total GAG content.
# Inhibition of apoptosis. To determine whether apoptosis could be prevented by caspase inhibition, 12 explants were loaded at 23 MPa (High Load) and cultured for 48 hours. […] Percent apoptosis and GAG release in media was measured as described above.
# Release of sulfated glycosaminoglycans (GAG) was analyzed as a measure of the extent of damage sustained by the explant. […] GAG depletion was assessed by dimethylene blue binding assays of the culture supernatants and this correlated with the reduced of safranin O staining of the cartilage sections.
# [3] = tested on: femoral and tibial articular cartilage; assay: Intraarticular injection of caspase inhibitor in rabbits with anterior cruciate ligament transection (ACLT); assay type: in vivo, New Zealand White rabbits; conditions: rabbit bilateral ACLT, 25 μg intra-articular three times per week for six weeks
# Protocol: Intraarticular injection of caspase inhibitor in rabbits with ligament transection. A pilot study was performed to assess feasibility and efficacy of caspase inhibition in vivo. Eight New Zealand White rabbits were divided into anterior cruciate ligament transection (ACLT) and ACLT+ caspase inhibitor (CI) groups. Both groups underwent bilateral ACLT. The ACLT+CI group was treated with intra-articular injections of 25 μg of z-VAD.fmk three times per week for six weeks while the control group received saline injections. Rabbits were euthanised at six weeks and femoral and tibial articular cartilage evaluated by India ink staining and histologic Mankin grading after Safranin-O stain.
# Histologically, more knees from the ACLT group had higher Mankin scores. 87% (⅞) ACLT knees had grades 5 or higher, while 50% ( 4/8) ACLT+CI knees were graded 5 or higher. The India ink stained femoral condyles were photographed and digital images were used to quantify the surface areas of the lesions.
Compound,"Mean (±SD) apoptosis rates, Loaded + Agent [1]","chondrocyte apoptosis after mechanical injury (result in words) ([1]; bovine explants, z-VAD.fmk 100 μM, 23 MPa, 48 hours)","reduction in the apoptosis rate ([1]; high and intermediate load groups, bovine explants) [%]","Mean (±SD) apoptosis rates, Loaded + Agent (human cartilage explants; loaded at 23 MPa)","mean reduction in apoptotic rates (human cartilage explants; human explants cultured in z-VAD.fmk immediately after injury, 30% strain, 96 hours post-injury) [%]",GAG release / GAG depletion [2],GAG release / GAG depletion ([2]; listed as pan-caspase inhibitor),"reduction of the size of the cartilage lesions (surface area, India ink stained femoral condyles) [3] [%]","knees with histologic Mankin grades 5 or higher ([3]; 4/8 knees, ACLT saline group 87%) [%]","cartilage lesions under India ink examination (area, grade) ([3]; ACLT group grade III to IVa, listed as caspase inhibitor)","Mean (±SD) apoptosis rates, Loaded + Agent (human cartilage explants; loaded at 30% strain)"
C[C@@H]1C[C@H]2[C@@H]3CCC4=CC(=O)C=C[C@]4(C)[C@@]3(F)[C@@H](O)C[C@]2(C)[C@@]1(O)C(=O)CO [Dexameth.],47 (±11.2) %,–,–,–,–,–,–,–,–,–,–
"COC(=O)CC(NC(=O)C(C)NC(=O)C(NC(=O)OCc1ccccc1)C(C)C)C(=O)CF (stereo not drawn) [z-VAD.fmk, benzyloxycarbonyl-Val-Ala-Asp (OMe) fluoromethylketone] (Cbz-Val-Ala-Asp(OMe)-CH2F; configuration not given here)",31 (±13.9) %,reduced chondrocyte apoptosis,> 50,34 (±10.2) %,50,normalization of the GAG depletion,reduction in GAG release,~80,50,lesions that were smaller in area; also recorded: ranged from II (minimum fibrillation),–
IGF-1: agent IGF-1 tested for pharmacologic modulation of apoptosis after cartilage injury in vitro,42 (±10.9) %,–,–,–,–,–,–,–,–,–,10 (±6.2) %
